The subject of series [1] is HUVECs. Briefly: vascular network in HUVEC/iCasp9-HDF microfluidic devices after fibroblast removal (dextran perfusion). The series is classed as cell-based, human. On the procedure:
More specifically, the molds for the 2-channel microfluidic devices were constructed using stereolithography (Proto Labs). Polydimethylsiloxane (PDMS) was cured at a standard mixing ratio overnight at 60° C. in the mold, and individual devices were cut and plasma-bonded to glass slides. To enhance ECM bonding to PDMS, the surface inside the tissue chamber of the devices was functionalized with 0.01% poly-L-lysine and 1% glutaraldehyde following plasma-activation and washed overnight in DI water. On the day of seeding, devices were soaked in 70% ethanol (EtOH) and dried. Acupuncture needles (300 μm diameter) (Hwato) were blocked in 0.1% (w/v) bovine serum albumin (BSA) (Sigma) in phosphate buffer saline (PBS) for 45 minutes and inserted through the two needle guides. Devices with needles were UV-sterilized for 15 minutes. Once the needles were inserted, a fibrinogen solution containing human umbilical vein endothelial cells (HUVECs) and growth-arrested human dermal fibroblasts (HDFs) were added into the tissue chamber with thrombin. To prepare the cells for seeding, HDFs or iCasp-9 HDFs were growth-arrested with 10 μg/mL mitomycin in FGM-2 for 2.5 hours and thoroughly washed 5 times in FBM. Both HUVECs and HDFs were lifted from culture plates using TrypLE Express (Gibco), centrifuged at 200 g for 4 minutes, and resuspended to a concentration of 20 million cells/mL in EGM-2. A solution of HUVECs (3 million cells/mL), HDFs or iCasp-9 HDFs (0, 1 million, 3 million, or 6 million cells/mL), fibrinogen (2.5 mg/mL), thrombin (1 U/mL) in EGM-2 was prepared for the bulk hydrogel region of each device. After the addition of thrombin, the solution was quickly injected into the tissue chamber, and the devices were repeatedly rotated while the solution crosslinked. Appropriate media was added to each well of the device, and the devices were placed in the incubator (37° C., 5% CO2). After 15 minutes, the needles were carefully removed from the devices to create 300 μm hollow channels between the wells. Each channel of the device was seeded with additional HUVECs at 2 million cells/ml for at least 5 minutes on each side (top and bottom) in the incubator. Each device received 200 μl of appropriate media daily and cultured on the rocker inside the incubator. Once the fibrinogen polymerized into fibrin, the needles were removed to create two hollow, microfluidic channels. These channels were then seeded with additional HUVECs to line the walls in a monolayer.
Vessel networks were analyzed by fixing all devices with 4% PFA for 30 minutes on a rocker and washing with PBS overnight at 4° C. The devices were then blocked in 3% BSA overnight at 4° C. Lectin (UEA DyLight 649, Vector Labs) was diluted in the blocking solution at 1:100 dilution and added to the devices for another 4° C. overnight incubation. Devices were then washed overnight with PBS at 4° C. and kept in PBS with 0.02% (w/v) sodium azide at 4° C. until imaging. Before imaging, a solution of 500 kDa fluorescein isothiocyanate (FITC)- or tetramethylrhodamine isothiocyanate (TRITC)-conjugated dextran (0.15 mg/ml) was added to one of the microfluidic channels to generate gravity-driven hydrostatic pressure between the two channels of the device. All device images were then captured by a Leica SP8 confocal microscope (Leica, Wetzlar, Germany) using either a Leica 10×/0.30NA W U—V-I WD-3.60 Water or 25×/0.95NA W VISIR WD-2.50 Water objective and Leica LAS X imaging software. […]

Series [2] has as its target T1, inducible caspase-9 (iCasp9) (Homo sapiens, UniProt P55211).
T1 construct: #15567 pMSCV-F-del Casp9.IRES.GFP; host or cells: 3T3-J2 fibroblasts, lentivirally transduced
Briefly: caspase-9 activation in CID-treated iCasp9-GFP J2 fibroblasts (antibody staining, Caspase-Glo 9). The series is classed as cell-based. The text has this: Inducible caspase-9 (iCasp9), which is activated by treatment with a small molecule chemical inducer of dimerization (CID; also known as rapalog, an analog of rapamycin) and leads to subsequent cell death through the intrinsic apoptosis pathway was utilized (FIG. 1A). The safety and efficacy of the iCasp9 transgene and CID have previously been shown in vitro and in vivo in animals and humans (A. Di Stasi, et al. (2011) dx.doi.org/10.1056/NEJMoa1106152; T. Gargett and M. P. Brown (2014) Front. Pharmacol. 5; K. C. Straathof, et al. (2005) Blood 105, 4247, each of which is herein incorporated by this reference). To generate inducible cells, 3T3-J2 fibroblasts (‘J2’) were transduced with lentivirus with a bidirectional expression cassette encoding iCasp9 and GFP genes (#15567 pMSCV-F-del Casp9.IRES.GFP; cloned to a lentivirus plasmid backbone with an SFFV promoter). FACS was used to enrich the infected population for the 15% highest-expression GFP+ cells. […] To transfect J2s, virus was added to growth media and cultured overnight. iCasp9-GFP J2 fibroblasts at passage 22 were grown at confluence for 2 weeks to mimic experimental culture conditions, without a decrease in the percentage of the cell population with positive GFP expression. iCasp9-GFP J2s were plated in monolayer and dosed with ethanol vehicle or CID (B/B homodimerizer, AP20187; rapalog; Takara/ClonTech), and then assayed for cell viability using the CellTiter-Glo® Luminescent Cell Viability Assay (Promega), for caspase-9 activation using the CaspGLOW™ Fluorescein Active Caspase-9 Staining Kit (Thermo Fisher Scientific) and Caspase-Glo®9 Assay Systems (Promega), or stained with the Pacific Blue Annexin V/SYTOXTM AADvanced™ Apoptosis Kit (Thermo Fisher) to identify apoptotic cells by flow cytometry (>100,000 cells analyzed per condition).
After iCasp9-GFP J2 fibroblasts were exposed to CID, iCasp9 dimers were detected by staining with a caspase-9 antibody (FIG. 1C). […]

T1 sequence (P55211 with tags, fused parts or gaps limits assumed): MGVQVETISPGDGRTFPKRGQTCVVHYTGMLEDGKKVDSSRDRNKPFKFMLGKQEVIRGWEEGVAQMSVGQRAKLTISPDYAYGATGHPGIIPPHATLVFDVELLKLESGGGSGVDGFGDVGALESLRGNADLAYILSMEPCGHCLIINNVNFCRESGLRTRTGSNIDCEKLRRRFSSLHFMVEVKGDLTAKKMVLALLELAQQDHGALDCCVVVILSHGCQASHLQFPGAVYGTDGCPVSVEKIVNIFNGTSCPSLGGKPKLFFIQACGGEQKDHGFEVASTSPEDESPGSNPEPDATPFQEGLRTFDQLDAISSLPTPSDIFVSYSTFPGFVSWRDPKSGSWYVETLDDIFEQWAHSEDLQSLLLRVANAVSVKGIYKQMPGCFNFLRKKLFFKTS

In the case of `CC[C@H](C(=O)N1CCCC[C@H]1C(=O)O[C@H](CCc1ccc(OC)c(OC)c1)c1cccc(OCC(=O)NCC(CNC(=O)COc2cccc([C@@H](CCc3ccc(OC)c(OC)c3)OC(=O)[C@@H]3CCCCN3C(=O)[C@@H](CC)c3cc(OC)c(OC)c(OC)c3)c2)CN(C)C)c1)c1cc(OC)c(OC)c(OC)c1` [CID, AP20187], the “acute effects on HUVECs / noticeable deterioration of the vascular structure” value in series [1] (10 nM CID after 7 days of co-culture) was “not observed”. Further, in series [1] (50 nM CID at day 0), the “dextran transport of endothelial network at day 7” value is “none of these structures could transport dextran”. For the same compound, the “perfusion of endothelial network at day 7” value in series [1] (50 nM CID at day 1) is “little to no perfusion”. In addition, the “endothelial network at day 7” value in series [1] (50 nM CID at day 3 or day 5) is “highly interconnected and perfusable endothelial networks”. Besides, the “average diameter of the perfused vessels versus control” value in series [1] (all conditions except day 0 deletion) was “comparable”. In series [2] (50 nM CID, collected 15 and 30 minutes after treatment), the Caspase-9 staining result was “increased”. For the same compound, the “caspase-9 cleavage compared to wild-type J2s” value in series [2] (15 minutes after CID dosing) came to 16 fold; in series [2] (30 minutes after CID dosing), 18 fold.

The record behind these values is US20240287463A1, “INDUCIBLE TISSUE CONSTRUCTS AND USES THEREOF” (Massachusetts Institute of Technology, priority 2020, published 2024).
